Reference: PubChem BioAssay (NCI)
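Cells were grown in 96-well plates and exposed to each compound for 48 hours at five concentrations; endpoints were interpolated linearly between bracketing concentrations, or set to the highest concentration if not reached. Definition used: TGI = concentration required for complete inhibition of growth.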 Where a SMILES comes first, the peptide text is derived from it. [ ]: non-standard residue; d: D form. The star is where a group is joined. ξ: configuration not given here. X37 = O=C(OCc1ccccc1)[C@@H]1CCC[C@H]1N*; Fmoc = O=C(OCC1c2ccccc2-c2ccccc21)*; ξW = NC(Cc1c[nH]c2ccccc12)C(=O)O; ξF = NC(Cc1ccccc1)C(=O)O; Boc = CC(C)(C)OC(=O)*; ξK = NCCCCC(N)C(=O)O; ξT = CC(O)C(N)C(=O)O; OBn = c1ccc(CO*)cc1; Bn = c1ccc(C*)cc1; tBu = CC(C)(C)*

Legend:
Assay in all cases: NCI tumour cell line growth inhibition, 48 h
SNB-19 CNS = system: SNB-19 CNS
CAKI-1 renal = system: CAKI-1 renal
DU-145 prostate = system: DU-145 prostate
OVCAR-8 ovarian = system: OVCAR-8 ovarian
SK-MEL-28 melanoma = system: SK-MEL-28 melanoma
OVCAR-3 ovarian = system: OVCAR-3 ovarian
A549 NSCLC = system: A549 NSCLC
SF-268 CNS = system: SF-268 CNS
TK-10 renal = system: TK-10 renal
RXF 393 renal = system: RXF 393 renal

Compound | TGI (SNB-19 CNS) [µM] | TGI (CAKI-1 renal) [µM] | TGI (DU-145 prostate) [µM] | TGI (OVCAR-8 ovarian) [µM] | TGI (SK-MEL-28 melanoma) [µM] | TGI (OVCAR-3 ovarian) [µM] | TGI (A549 NSCLC) [µM] | TGI (SF-268 CNS) [µM] | TGI (TK-10 renal) [µM] | TGI (RXF 393 renal) [µM]
CC(C)(C)NCC(O)COc1cccc2[nH]c(C#N)cc12 (stereo not given) | > 100 | > 100 | > 100 | > 100 | > 100 | > 100 | > 100 | > 100 | > 100 | –
O=Cc1cc(O)c(O)c(O)c1-c1c(C=O)cc(O)c(O)c1O | > 100 | > 100 | – | > 100 | > 100 | > 100 | > 100 | > 100 | > 100 | –
C[C@H](NC(=O)OC1C2C=CC(O)C1CC2)c1ccccc1 (stereo not given in full) | > 100 | > 100 | – | > 100 | > 100 | > 100 | > 100 | > 100 | > 100 | > 100
CC(=O)OC(C)(C)C1CCC(C)(C(O)COc2ccc(CCNC(=O)c3ccccc3)cc2)O1 (stereo not given) | > 100 | > 100 | – | > 100 | > 100 | > 100 | > 100 | > 100 | > 100 | > 100
CC1(C)COC(c2cccc(C3=NC(C)(C)CO3)c2)=N1 | > 100 | > 100 | > 100 | > 100 | > 100 | – | > 100 | > 100 | > 100 | –
Cc1cc2nc3c(C#N)c(-c4ccccc4)/c(=C\Nc4cccc(C(F)(F)F)c4)c(=O)n3c2cc1C | > 100 | > 100 | – | > 100 | > 100 | 54.4 | > 100 | > 100 | > 100 | > 100
COC(=O)CP1(=O)OC2C(C3CCC2(C)C3(C)C)N1c1cc(C(F)(F)F)cc(C(F)(F)F)c1 (stereo not given) | > 100 | 83.1 | > 100 | > 100 | > 100 | 34.4 | > 100 | 82.1 | 75.2 | –
NC12c3c4cccc3Oc3cccc(c31)Oc1cccc(c12)O4 | > 50 | > 50 | > 50 | > 50 | > 50 | > 50 | > 50 | > 50 | – | > 50
COc1cccc(-n2nnc3c(N)nc(N)nc32)c1 | > 100 | > 100 | > 100 | > 100 | > 100 | > 100 | > 100 | > 100 | > 100 | –
CC(=O)OC1COC(N2C(=O)C(=O)c3cc(Br)c([N+](=O)[O-])cc32)C(OC(C)=O)C1OC(C)=O (stereo not given) | > 100 | > 100 | – | > 100 | > 100 | > 100 | > 100 | > 100 | > 100 | 82.3
CCOC(=O)[C@H]1Nc2ccc(O)cc2C2c3ccccc3CC21 (stereo not given in full) | > 100 | > 100 | – | > 100 | 98 | 91.8 | > 100 | > 100 | > 100 | 91.9
CCCCc1ccc(N2C(=O)c3cc(C)cnc3S2(=O)=O)cc1 | > 100 | – | > 100 | > 100 | > 100 | > 100 | > 100 | > 100 | – | > 100
COc1ccc2cc(C(=O)NCCc3ccccc3)ccc2c1OC | > 100 | > 100 | > 100 | > 100 | > 100 | > 100 | > 100 | > 100 | – | 70.7
OC(Cn1cncn1)(Cn1cncn1)c1ccc(Cl)cc1Cl | – | > 100 | – | > 100 | > 100 | > 100 | > 100 | > 100 | > 100 | > 100
CC(C)CC(NC(=O)C(Cc1ccccc1)NC(=O)C(COCc1ccccc1)NC(=O)OC(C)(C)C)C(=O)OCc1ccccc1 (stereo not drawn) (Boc-Ser(Bn)-Phe-Leu-OBn; configuration not given here) | > 100 | > 100 | 25.2 | 34.6 | 42 | > 100 | – | 43 | > 100 | –
CC(=O)OCc1ccc(-c2nc(C#N)c(N)o2)o1 | > 10 | > 10 | > 10 | > 10 | > 10 | – | > 10 | > 10 | > 10 | > 10
CC1(C)OC1CC/C(=C/CBr)CBr (stereo not given) | 28.6 | 32.3 | 55.6 | – | 31.5 | 33.7 | 53.1 | 29 | 32.5 | 31.2
CC(OC(C)(C)C)C(NC(=O)C(CCCCNC(=O)OC(C)(C)C)NC(=O)C(Cc1c[nH]c2ccccc12)NC(=O)C(Cc1ccccc1)NC(=O)OCC1c2ccccc2-c2ccccc21)C(=O)NC(Cc1ccccc1)C(=O)N[C@@H]1CCC[C@H]1C(=O)OCc1ccccc1 (stereo not given in full) (Fmoc-[ξF][ξW][ξK](Boc)[ξT](tBu)[ξF]-X37) | – | > 100 | > 100 | > 100 | > 100 | > 100 | > 100 | > 100 | > 100 | > 100
Cn1cc(C(=O)C2CCCCC2)ccc1=O | > 100 | > 100 | – | > 100 | > 100 | > 100 | > 100 | > 100 | > 100 | > 100
CC(=O)NC1C(OCC(=O)NC(C)C(=O)NC(CCC(=O)NCCCCCNc2ccc([N+](=O)[O-])c3[nH]c4ccccc4c(=O)c23)C(N)=O)C(O)C(CO)OC1(C)OCc1ccccc1 (stereo not given) | > 50 | > 50 | > 50 | > 50 | – | > 50 | > 50 | > 50 | > 50 | 19.5
CCC1OC2C(CC=C(C)C)=C3OC(C)(O)C(C)(CC)C(O)C3=C3OC(=O)C=C1C32 (stereo not given) | > 100 | > 100 | > 100 | – | > 100 | – | > 100 | > 100 | > 100 | –
C[Si](C)(C)C#C[I+]c1ccccc1 | > 100 | > 100 | – | 50.1 | > 100 | 86.2 | > 100 | > 100 | > 100 | > 100
CCC(C#N)N(Cc1cccc(CN(C(C)=O)C(C#N)CC)c1)C(C)=O (stereo not given) | > 100 | > 100 | > 100 | > 100 | – | > 100 | > 100 | > 100 | > 100 | > 100
